Laboratory results as given in PMC6332448, “SAR Studies Leading to the Identification of a Novel Series of Metallo-β-lactamase Inhibitors for the Treatment of Carbapenem-Resistant Enterobacteriaceae Infections That Display Efficacy in an Animal Infection Model” (ACS Infectious Diseases, 2018).
“And” between values parts separate entries of the source, which are not always exact repeats. Identical values can stand only once.

molecular target: VIM-1 (Pseudomonas aeruginosa, UniProt A0A0F7KYQ8); assay: biochemical; assay type: biochemical; details: not given

| SMILES | IC50 [µM] |
| --- | --- |
| O=C(O)c1cccc(-c2ccc(F)c(F)c2)n1 [Compound 16] | > 200 |
| Cn1cnc(C(=O)O)c1 [Compound 8] | > 200 |
| O=C(O)c1cccc(-c2ccoc2)n1 [Compound 15] | > 200 |
| O=C(O)c1ncsc1NS(=O)(=O)c1ccncc1 [Compound 77] | 180 |
| O=C(O)c1ncccc1-c1ccoc1 [Compound 13] | > 200 |
| O=C(O)c1ncsc1NS(=O)(=O)c1ccccn1 [Compound 75] | > 200 |
| O=C(O)c1ncccc1NS(=O)(=O)Cc1ccc(Cl)cc1Cl [Compound 71] | 17.5 |
| O=C(Cc1cccs1)Nc1cccnc1C(=O)O [Compound 23] | 133 |
| O=C(O)c1ncccc1-c1ccncc1 [Compound 12] | > 200 |
| O=C(O)c1ncccc1NS(=O)(=O)Cc1ccccc1Cl [Compound 67] | 10.9 |
| O=C(O)c1ncccc1NS(=O)(=O)Cc1ccc(Cl)c(Cl)c1 [Compound 69] | > 200 |
| O=C(O)c1cccnn1 [Compound 10] | > 200 |
| O=C(O)c1ccc2ccccc2n1 [Compound 7] | > 200 |
| O=C(O)c1cnccn1 [Compound 9] | > 200 |
| O=C(O)c1ncccc1-c1ccc(F)c(F)c1 [Compound 14] | > 200 |

same assay, conditions: 300 μM imipenem, 10 mM HEPES pH 7.5, 25 °C; average of at least two independent assays; read-out: VIM-1 IC50

| SMILES | IC50 [µM] |
| --- | --- |
| COc1cccc(CC(=O)Nc2ccnc(C(=O)O)c2)c1 [Compound 50] | > 200 |
| O=C(Cc1cccs1)Nc1cccc(C(=O)O)n1 [Compound 29] | > 200 |
| CCCCC(=O)Nc1ccnc(C(=O)O)c1 [Compound 51] | > 200 |
| CS(=O)(=O)c1ccc(S(=O)(=O)Nc2cccnc2C(=O)O)cc1 [Compound 30] | > 200 |
| COc1cccc(S(=O)(=O)Nc2cccc(C(=O)O)n2)c1 [Compound 45] | > 200 |
| COc1ccc(C(=O)Nc2cccc(C(=O)O)n2)cc1 [Compound 24] | > 200 |
| O=C(O)c1cc(NS(=O)(=O)c2ccccc2)ccn1 [Compound 55] | > 200 |
| N#Cc1cccc(S(=O)(=O)Nc2ccc(C(=O)O)nc2)c1 [Compound 60] | > 200 |
| O=C(Cc1c(Cl)cccc1Cl)Nc1cccnc1C(=O)O [Compound 21] | > 200 |
| O=C(Cc1ccccc1)Nc1ccnc(C(=O)O)c1 [Compound 52] | > 200 |

same assay, conditions: tested up to 200 μM

| SMILES | inhibition of VIM-1, in words |
| --- | --- |
| Cn1cnc(C(=O)O)c1 [Compound 8] | no detectable inhibition |
| O=C(O)c1cccnn1 [Compound 10] | no detectable inhibition |
| O=C(O)c1ccc2ccccc2n1 [Compound 7] | no inhibition |
| O=C(O)c1cnccn1 [Compound 9] | no detectable inhibition |

molecular target: VIM-2 (Escherichia coli, UniProt Q5U7L7); assay: biochemical; details: not given

| SMILES | IC50 [µM] |
| --- | --- |
| O=C(O)c1cccc(-c2ccc(F)c(F)c2)n1 [Compound 16] | > 200 |
| Cn1cnc(C(=O)O)c1 [Compound 8] | > 200 |
| O=C(O)c1cccc(-c2ccoc2)n1 [Compound 15] | > 200 |
| O=C(O)c1ncsc1NS(=O)(=O)c1ccncc1 [Compound 77] | 1.8 |
| O=C(O)c1ncccc1-c1ccoc1 [Compound 13] | > 200 |
| O=C(O)c1ncsc1NS(=O)(=O)c1ccccn1 [Compound 75] | 16.1 |
| O=C(Cc1cccs1)Nc1cccnc1C(=O)O [Compound 23] | 91.3 |
| O=C(O)c1ncccc1-c1ccncc1 [Compound 12] | > 200 |
| O=C(O)c1cccnn1 [Compound 10] | > 200 |
| O=C(O)c1ccc2ccccc2n1 [Compound 7] | > 200 |
| O=C(O)c1cnccn1 [Compound 9] | > 200 |
| O=C(O)c1ncccc1-c1ccc(F)c(F)c1 [Compound 14] | > 200 |

molecular target: IMP-1 (Serratia marcescens, UniProt P52699); assay: biochemical; assay type: biochemical; details: not given
Sequence (P52699 19-246, looked up, species assumed): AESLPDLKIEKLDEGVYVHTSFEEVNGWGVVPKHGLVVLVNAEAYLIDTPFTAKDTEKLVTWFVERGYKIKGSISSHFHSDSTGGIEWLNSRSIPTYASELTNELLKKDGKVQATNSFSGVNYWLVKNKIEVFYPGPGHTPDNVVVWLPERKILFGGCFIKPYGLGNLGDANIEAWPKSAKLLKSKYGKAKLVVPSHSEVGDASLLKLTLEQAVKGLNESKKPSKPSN

| SMILES | IC50 [µM] |
| --- | --- |
| O=C(O)c1cccc(-c2ccc(F)c(F)c2)n1 [Compound 16] | > 200 |
| Cn1cnc(C(=O)O)c1 [Compound 8] | > 200 |
| O=C(O)c1cccc(-c2ccoc2)n1 [Compound 15] | > 200 |
| O=C(O)c1ncsc1NS(=O)(=O)c1ccncc1 [Compound 77] | 23.4 |
| O=C(O)c1ncccc1-c1ccoc1 [Compound 13] | > 200 |
| O=C(O)c1ncsc1NS(=O)(=O)c1ccccn1 [Compound 75] | 114 |
| O=C(O)c1ncccc1NS(=O)(=O)Cc1ccc(Cl)cc1Cl [Compound 71] | 74.3 |
| O=C(Cc1cccs1)Nc1cccnc1C(=O)O [Compound 23] | 146 |
| O=C(O)c1ncccc1-c1ccncc1 [Compound 12] | > 200 |
| O=C(O)c1ncccc1NS(=O)(=O)Cc1ccc(Cl)c(Cl)c1 [Compound 69] | > 200 |
| O=C(O)c1cccnn1 [Compound 10] | > 200 |
| O=C(O)c1ccc2ccccc2n1 [Compound 7] | > 200 |
| O=C(O)c1cnccn1 [Compound 9] | > 200 |
| O=C(O)c1ncccc1-c1ccc(F)c(F)c1 [Compound 14] | > 200 |

same assay, conditions: 300 μM imipenem, 10 mM HEPES pH 7.5, 25 °C; average of at least two independent assays; read-out: IMP-1 IC50

| SMILES | IC50 [µM] |
| --- | --- |
| COc1cccc(CC(=O)Nc2ccnc(C(=O)O)c2)c1 [Compound 50] | > 200 |
| O=C(Cc1cccs1)Nc1cccc(C(=O)O)n1 [Compound 29] | > 200 |
| CCCCC(=O)Nc1ccnc(C(=O)O)c1 [Compound 51] | > 200 |
| CS(=O)(=O)c1ccc(S(=O)(=O)Nc2cccnc2C(=O)O)cc1 [Compound 30] | > 200 |
| COc1cccc(S(=O)(=O)Nc2cccc(C(=O)O)n2)c1 [Compound 45] | > 200 |
| COc1ccc(C(=O)Nc2cccc(C(=O)O)n2)cc1 [Compound 24] | 156 |
| O=C(O)c1cc(NS(=O)(=O)c2ccccc2)ccn1 [Compound 55] | > 200 |
| N#Cc1cccc(S(=O)(=O)Nc2ccc(C(=O)O)nc2)c1 [Compound 60] | 162 |
| O=C(Cc1c(Cl)cccc1Cl)Nc1cccnc1C(=O)O [Compound 21] | > 200 |
| O=C(Cc1ccccc1)Nc1ccnc(C(=O)O)c1 [Compound 52] | > 200 |

same assay, conditions: tested up to 200 μM

| SMILES | inhibition of IMP-1, in words |
| --- | --- |
| Cn1cnc(C(=O)O)c1 [Compound 8] | no detectable inhibition |
| O=C(O)c1cccnn1 [Compound 10] | no detectable inhibition |
| O=C(O)c1ccc2ccccc2n1 [Compound 7] | no inhibition |
| O=C(O)c1cnccn1 [Compound 9] | no detectable inhibition |

molecular target: NDM-1 (Klebsiella pneumoniae, UniProt C7C422); assay: biochemical; assay type: biochemical; details: 300 μM imipenem, 10 mM HEPES pH 7.5, 25 °C; average of at least two independent assays; read-out: NDM-1 IC50
Sequence (C7C422 29-270, looked up, species assumed): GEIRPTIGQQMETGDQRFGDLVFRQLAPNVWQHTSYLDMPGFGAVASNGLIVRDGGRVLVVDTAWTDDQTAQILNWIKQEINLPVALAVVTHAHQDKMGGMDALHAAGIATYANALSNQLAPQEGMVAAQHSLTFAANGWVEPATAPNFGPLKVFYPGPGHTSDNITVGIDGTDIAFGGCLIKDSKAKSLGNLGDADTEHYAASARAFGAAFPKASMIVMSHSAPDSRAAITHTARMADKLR

| SMILES | IC50 [µM] |
| --- | --- |
| COc1cccc(CC(=O)Nc2ccnc(C(=O)O)c2)c1 [Compound 50] | 35.3 |
| O=C(Cc1cccs1)Nc1cccc(C(=O)O)n1 [Compound 29] | > 200 |
| CCCCC(=O)Nc1ccnc(C(=O)O)c1 [Compound 51] | 11.5 |
| CS(=O)(=O)c1ccc(S(=O)(=O)Nc2cccnc2C(=O)O)cc1 [Compound 30] | 69.9 |
| COc1cccc(S(=O)(=O)Nc2cccc(C(=O)O)n2)c1 [Compound 45] | 43.3 |
| COc1ccc(C(=O)Nc2cccc(C(=O)O)n2)cc1 [Compound 24] | 20.3 |
| O=C(O)c1cc(NS(=O)(=O)c2ccccc2)ccn1 [Compound 55] | 145 |
| N#Cc1cccc(S(=O)(=O)Nc2ccc(C(=O)O)nc2)c1 [Compound 60] | 7.2 |
| O=C(Cc1c(Cl)cccc1Cl)Nc1cccnc1C(=O)O [Compound 21] | 8.99 |
| O=C(Cc1ccccc1)Nc1ccnc(C(=O)O)c1 [Compound 52] | 11.6 |

same assay, conditions: NDM-1 IC50, 300 μM imipenem, 10 mM HEPES pH 7.5, 25 °C; average of at least two independent assays

| SMILES | IC50 |
| --- | --- |
| O=C(O)c1cccc(-c2ccc(F)c(F)c2)n1 [Compound 16] | > 200 µM |
| Cn1cnc(C(=O)O)c1 [Compound 8] | > 200 µM |
| O=C(O)c1cccc(-c2ccoc2)n1 [Compound 15] | 163 µM |
| O=C(O)c1ncsc1NS(=O)(=O)c1ccncc1 [Compound 77] | 3.4 µM |
| O=C(O)c1ncccc1-c1ccoc1 [Compound 13] | > 200 µM |
| O=C(O)c1ncsc1NS(=O)(=O)c1ccccn1 [Compound 75] | 12.9 µM |
| O=C(O)c1ncccc1NS(=O)(=O)Cc1ccc(Cl)cc1Cl [Compound 71] | 80.6 µM |
| O=C(Cc1cccs1)Nc1cccnc1C(=O)O [Compound 23] | 6.56 µM and 6.6 µM |
| O=C(O)c1ncccc1-c1ccncc1 [Compound 12] | > 200 µM |
| O=C(O)c1ncccc1NS(=O)(=O)Cc1ccccc1Cl [Compound 67] | 32.6 µM |
| O=C(O)c1ncccc1NS(=O)(=O)Cc1ccc(Cl)c(Cl)c1 [Compound 69] | > 200 µM |
| O=C(O)c1cccnn1 [Compound 10] | > 200 µM |
| O=C(O)c1ccc2ccccc2n1 [Compound 7] | 40.9 µM |
| O=C(O)c1cnccn1 [Compound 9] | > 200 µM |
| O=C(O)c1ncccc1-c1ccc(F)c(F)c1 [Compound 14] | > 200 µM |

same assay, conditions: tested up to 200 μM

| SMILES | inhibition of NDM-1, in words |
| --- | --- |
| Cn1cnc(C(=O)O)c1 [Compound 8] | no detectable inhibition |
| O=C(O)c1cccnn1 [Compound 10] | no detectable inhibition |
| O=C(O)c1ccc2ccccc2n1 [Compound 7] | modest inhibition |
| O=C(O)c1cnccn1 [Compound 9] | no detectable inhibition |
